Laboratory results published in publication PMC5118774 (Frontiers in Pharmacology, 2016).
“Also recorded” adds a separate entry of the source.

How the values were obtained:
[1] = Pharmacokinetic study, plasma and brain levels after single i.p. injection; assay type: in vivo, C57BL/6J mice; conditions: 30 mg/kg i.p.; for Brain AUC0-3: mean ± SEM
Method: Adult (8 weeks old) male and female C57BL/6J (Military Farm, Belgrade, Serbia) were divided into six groups corresponding to pre-determined time intervals following a single 30 mg/kg α5-PAM injection (5, 10, 20, 40, 60, and 180 min). At 30 mg/kg α5-PAM administration has high affinity for the α5-subunit and lower affinity for GABAA-receptors containing other subunits ([Savic et al., 2010]). As the goal of this study was to selectively evaluate positive modulation of α5-containing GABAA receptors to stress-induced behaviors, we chose this dose to conduct preliminary pharmacokinetic analyses. Blood samples were collected in heparinized syringes via cardiac puncture of mice anesthetized with ketamine (100 mg/kg i.p.; 10% Ketamidor, Richter Pharma Ag, Wels, Austria), and centrifuged at 2500 rpm for 10 min to obtain plasma. Thereafter, mice were decapitated and brains were weighed, homogenized in 2 mL of methanol and centrifuged at 6000 rpm for 20 min. To determine the concentration of α5-PAM in plasma and supernatants of brain tissue homogenates, α5-PAM was extracted by solid phase extraction using Oasis HLB cartridges (Waters Corporation, Milford, MA, USA). The procedure of sample preparation and determination of α5-PAM by ultra performance liquid chromatography–tandem mass spectrometry (UPLC–MS/MS) with Thermo Scientific Accela 600 UPLC system connected to a Thermo Scientific TSQ Quantum Access MAX triple quadrupole mass spectrometer (Thermo Fisher Scientific, San Jose, CA, USA) equipped with electrospray ionization (ESI) source, is described in [Obradovic et al. (2014)].

α5 protein = test: Total and surface α5 protein, surface biotinylation and Western blotting; assay type: in vivo, C57BL/6J mice; conditions: acute or chronic treatment
Method: Dissected hippocampi were processed as described in [Pabba et al. (2014)] with minor modifications.
The following antibodies and their dilutions were used in this study: rabbit polyclonal anti-α5 (1:750; Thermo Fisher Scientific, Waltham, MA, USA), rabbit monoclonal anti-β1-[…] (NK-ATPase) (1:1000; Abcam, Cambridge, MA, USA), and mouse monoclonal anti-β-actin (1:100; Abcam, Cambridge, MA, USA).
Western blotting was performed using 5 μg of protein resolved on 8% SDS-PAGE and transferred onto PVDF membranes and developed using IR-Dye conjugated secondary antibody and detection using LI-COR (NE, USA). Quantification of bands was performed using Image Studio^TM Software (LI-COR, NE, USA). We analyzed α5 surface biotinylation in vehicle versus drug treated mice (N = 6 females and 4 males per group). Total α5 band intensities were normalized to β-actin, whereas surface α5 band intensities were normalized to NK-ATPase.

[2] = tested on: mice exposed to unpredictable chronic mild stress (UCMS); test: Elevated plus maze after UCMS; assay type: in vivo, C57BL/6J mice; conditions: for EPM percentage of entries into open arms: first cohort (Figure 2)
[3] = Plasma protein and brain tissue binding, rapid equilibrium dialysis; assay type: in vitro ADME, mouse
Text: The rapid equilibrium dialysis assay used to determine free fraction of α5-PAM in mouse plasma and brain tissue was the same as in [Obradovic et al. (2014)].

C#Cc1ccc2c(c1)C(c1ccccc1F)=N[C@H](C)c1c(C(=O)OCC)ncn1-2 [α5-PAM]
Brain AUC0-3, females relative to males [1]: approximately 1.25 X | Brain AUC0-3 ([1]; female mice): 4910.13 ± 1032.02 ng·h/g | Brain AUC0-3 ([1]; male mice): 3944.49 ± 560.30 ng·h/g | total or surface α5 protein expression, hippocampus (α5 protein; female UCMS mice): no difference; also recorded: No significant effect | total or surface α5 protein expression, hippocampus (α5 protein; male UCMS mice): no difference; also recorded: No significant effect | EPM open arm behavior ([2]; female UCMS mice, acute or chronic treatment, second cohort with non-stressed controls (Figure 3)): no effect | EPM percentage of entries into open arms ([2]; female UCMS mice, chronic 30 mg/kg i.p., vs UCMS-vehicle): anti-stress effect; also recorded: increased percentage of open arm entries | EPM, stress-induced behavior ([2]; male UCMS mice, 37.5 mg/kg acute or chronic (Figure 4B), 37.5 mg/kg): No change; also recorded: failed to reduce | EPM percentage of entries into open arms ([2]; male UCMS mice, acute or chronic 30 mg/kg i.p.): No significant differences; also recorded: no effect | EPM, UCMS-induced behavioral phenotype ([2]; male mice, UCMS plus single housing, chronic treatment (Figure 4A)): did not alter; also recorded: No significant effect | free fraction, brain tissue ([3]; mouse brain tissue): 2.73% | free fraction, plasma ([3]; mouse plasma): 7.44%
